# Measured values as given in patent US6686379B2, “Salt form of pantoprazole” (Altana Pharma AG, priority 1998, dated 2004).
# Experiment: storage stability of the solid salt forms at 90° C. for 4 days (discoloration, decomposition)
# Assay type: physicochemical
Compound,discoloration or decomposition (4 days at 90° C.),formation of decomposition products (4 days at 90° C.),stability (4 days at 90° C.),"stability properties in comparison with other forms (compared with pantoprazole itself, pantoprazole sodium sesquihydrate and pantoprazole sodium monohydrate)"
"COc1ccnc(C[S+]([O-])c2nc3ccc(OC(F)F)cc3[nH]2)c1OC (centres unmarked) [pantoprazole sodium sesquihydrate, sodium[5-[difluoromethoxy]-2-[[3,4-dimethoxy-2-pyridinyl]methyl]sulfinyl]-1H-benzimidazolide]sesquihydrate, reference compound]",turn brown-red,considerable amounts of decomposition products,–,–
COc1ccnc(C[S+]([O-])c2nc3cc(OC(F)F)ccc3[n-]2)c1OC.COc1ccnc(C[S+]([O-])c2nc3cc(OC(F)F)ccc3[n-]2)c1OC.O.O.[Mg+2] (centres unmarked) [pantoprazole magnesium dihydrate],almost no discoloration or decomposition,–,completely stable,very considerably improved stability properties
